One molecule from patent EP0626016B1, “[…] […]” (BRITISH TECHNOLOGY GROUP LIMITED, priority 1992, dated 1993) can be followed below.

Assay [1] deals with T1, HRP Type VIA (Armoracia rusticana, UniProt P00433).
T1 sequence (P00433 31-338): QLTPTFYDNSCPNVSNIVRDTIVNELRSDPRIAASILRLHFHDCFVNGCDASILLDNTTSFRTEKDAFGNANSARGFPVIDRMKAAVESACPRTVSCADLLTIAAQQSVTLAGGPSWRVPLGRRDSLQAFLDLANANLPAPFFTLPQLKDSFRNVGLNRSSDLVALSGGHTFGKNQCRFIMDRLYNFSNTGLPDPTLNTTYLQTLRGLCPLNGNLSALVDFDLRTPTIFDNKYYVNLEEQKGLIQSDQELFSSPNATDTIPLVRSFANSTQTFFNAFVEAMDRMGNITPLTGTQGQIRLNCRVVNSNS

For assay [2], the target named is T2, horseradish peroxidase Type VIA (Armoracia rusticana, UniProt P00433).
T2 construct: purchased Sigma Chemical Co
T2 sequence (P00433 31-338): T1 sequence (P00433 31-338)
As to the kind of experiment: Enhanced chemiluminescent assay for peroxide with 4-biphenylboronic acid (Example 8a). The note with it: 10µl enhancer (1:20 dilution of 1mg/ml). It is filed as biochemical. The protocol: The assay reagent consisted of the following reagents: 10µl 4-biphenylboronic acid (1:20 dilution of a 1mg/ml stock in DMSO), 10µl horseradish peroxidase (1:500,000 dilution of a 1mg/ml stock Type VIA in 0.1 mol/l Tris buffer pH 8.6) and 100µl luminol (0.025 g/l in 0.1 mol/l Tris buffer pH 8.6). These were mixed together and the light emission measured. A 10µl sample of a hydrogen peroxide solution (dilutions of a stock, 31µl 30% w/v hydrogen peroxide/ml in Tris buffer) was added, the contents of the assay tube mixed and the light emission recorded.
From Table 9 it can be seen that there was a dose-dependent increase in light output up to 2.4µmoles of peroxide.

In assay [3] the target is T2, horseradish peroxidase Type VIA. Briefly: Enhanced chemiluminescent assay for luminol with 4-biphenylboronic acid (Example 8b). The class given is biochemical. The note with it: 10µl enhancer (1:20 dilution of 1mg/ml). The procedure: The assay reagent consisted of the following reagents: 10µl 4-biphenylboronic acid (1:20 dilution of a 1mg/ml stock in DMSO), 10µl horseradish peroxidase (1:500,000 dilution of a lmg/ml stock Type VIA in 0.1 mol/l Tris buffer pH 8.6) and 100µl hydrogen peroxide solution (31µl 30% w/v hydrogen peroxide diluted in 100ml Tris buffer). These were mixed together and the light emission measured. A 10µl sample of a luminol solution (dilutions of a 0.25g/l in 0.1 mol/l Tris buffer pH 8.6 stock) was added, the contents of the assay tube mixed and the light emission recorded.
From Table 10 it can be seen that there was a dose-dependent increase in light output at all concentrations of luminol tested.

Consider `OB(O)c1ccc(-c2ccccc2)cc1` [Compound 1011, 4-biphenylboronic acid], for which the “(a) Decrease in background (without HRP with test cpd.)” value in assay [1] is listed as “Y”. Besides, the “(b) Increase in signal (with HRP, with test cpd.)” value in assay [1] is “Y”. The “(c) Increase in signal: background ratio” value in assay [1] is given as “Y (key: Column (c) shows whether there was an increase in the signal:background ratio by over 25% of the control value (Y = yes; N = no)”. The “Light emission at 5 minutes” value in assay [2] (Hydrogen peroxide 0 µmoles) is listed as 525; in assay [2] (Hydrogen peroxide 0.00024 µmoles), 659; in assay [2] (Hydrogen peroxide 0.0024 µmoles) it was 1,500; in assay [2] (Hydrogen peroxide 0.024 µmoles), 40,682; in assay [2] (Hydrogen peroxide 0.24 µmoles) it was 584,638; in assay [2] (Hydrogen peroxide 2.4 µmoles), 620,551. Also, the “Light emission at 5 minutes” value in assay [2] (Hydrogen peroxide 24 µmoles) is given as 339,291. Besides, the “Light emission at 10 minutes” value is on record as 54 in assay [3] (Luminol 0 µmoles); 145 in assay [3] (Luminol 0.00125 µmoles); 620 in assay [3] (Luminol 0.0125 µmoles); 5,161 in assay [3] (Luminol 0.125 µmoles); 55,873 in assay [3] (Luminol 1.25 µmoles); 358,184 in assay [3] (Luminol 12.5 µmoles). For the same molecule, the “Light emission at 10 minutes” value in assay [3] (Luminol 125 µmoles) is 834,089.
